Data set [1] in a line: method code SF, from You, R.; Wang, L.; Cong, L.; Wang, Q.; Cai, P.; Yuan, H. (2007). Physicochemical properties of oxymatrine-phospholipid complex. Pharmaceutical Journal of Chinese People's Liberation Army, …. The settings on record: pH 7.5.
The nature of data set [2]: method code SF, from DOI: 10.1584/jpestics.8.69.
Data set [3] is described as follows: method code SF-HPLC, from DOI: 10.1897/08-203.1, PMID: 18702564.
Data set [4] can be described thus: method code SF-RC, from DOI: 10.1016/0969-8051(94)00090-7, PMID: 7767321. To be noted: pH 7.4.
Data set [5] can be described thus: method code SF-RC, from DOI: 10.1016/s0969-8051(01)00264-5, PMID: 11711307. The settings on record: pH 7.4.
Data set [6] is described as follows: method code SF-HPLC, from DOI: 10.1023/a:1015823315983, PMID: 1475237. To be noted: pH 1.0.
The nature of data set [7]: method code SF-HPLC, from DOI: 10.1002/jps.23140, PMID: 22499243. The settings on record: pH 7.4.
Data set [8] is described as follows: method code SF-RC, from DOI: 10.1002/jps.2600651126, PMID: 11336. The settings on record: pH 2.0.
A short description of data set [9]: method code SF, from Rodriguez, L.; Zecchi, V.; Tartarini, A. (1984). Partition rate of some nonsteroidal anti-inflammatory agents in a three-phase water/n-octanol/water system. Pharmaceutical Acta Helvetiae, 59(3)95-96. The settings on record: pH 12.0.
The nature of data set [10]: method code SF-AS, from DOI: 10.1081/jlc-100104900. The settings on record: pH 1.0.
Data set [11] in a line: method code SF-AS, from THAKUR, B.; Mehta, U.; TIPNIS, P. (1981). Ortho effect in partition coefficients of some o-benzyloxybenzamides. Indian J Pharm Sci, 43(6)224-226.
Assay in data set [12]: not given
The source holds these as a separate data set.

Assay in data set [13]: not given
The source holds these as a separate data set.

The nature of data set [14]: method code SF-HPLC, from DOI: 10.1016/j.ejpb.2006.11.002, PMID: 17182232. To be noted: pH 7.4.
Data set [15] can be described thus: method code SF-GLC, from DOI: 10.1016/0048-3575(86)90042-8.
A short description of data set [16]: method code SF, from DOI: 10.1016/0006-2952(79)90295-8, PMID: 36087.
Assay in data set [17]: not given
This is another data set of the same source.

Data set [18] in a line: method code SF-RC, from DOI: 10.1021/jm000079i, PMID: 10956218. The settings on record: pH 7.4.
A short description of data set [19]: method code SF-HPLC, from DOI: 10.1002/jps.2600830120, PMID: 8138917. The settings on record: pH 7.4.
The conditions of data set [20]: pH 13.0.
Assay in data set [21]: not given
This is another data set of the same source.

Assay in data set [22]: not given
This is another data set of the same source.

Assay in data set [23]: not given
The source holds these as a separate data set.

Assay in data set [24]: not given
The source holds these as a separate data set.

The nature of data set [25]: method code SF-AS, from DOI: 10.1021/jm010817i, PMID: 11806714. The settings on record: pH 7.4.
A short description of data set [26]: method code SF-HPLC, from DOI: 10.1021/js970291i, PMID: 9523983. The settings on record: pH 7.4.
Data set [27] can be described thus: method code SF, from DOI: 10.3109/00498258709043934, PMID: 3564538.
Assay in data set [28]: not given
This is another data set of the same source.

Data set [29] is described as follows: method code SF-RC, from DOI: 10.1016/s0969-8051(03)00050-7, PMID: 12900283. The settings on record: pH 7.4.
The nature of data set [30]: method code SF, from DOI: 10.1016/0378-5173(85)90102-4. The settings on record: pH 8.0.
Assay in data set [31]: not given
This is another data set of the same source.

A short description of data set [32]: method code SF-RC, from DOI: 10.1016/j.nucmedbio.2011.12.002, PMID: 22321533.
Data set [33] is described as follows: method code SF-RC, from DOI: 10.1016/j.nucmedbio.2015.07.007, PMID: 26330158. To be noted: pH 7.4.
Data set [34] in a line: method code SF-HPLC, from DOI: 10.1016/j.ejps.2013.04.020, PMID: 23624327.
The nature of data set [35]: method code SF-RC, from DOI: 10.1016/s0969-8051(03)00049-0, PMID: 12900282. The settings on record: pH 7.4.
Assay in data set [36]: not given
The source holds these as a separate data set.

For data set [37] the following is noted: pH 7.4.
Data set [38] can be described thus: method code SF-AS, from DOI: 10.1248/cpb.41.171. To be noted: pH 7.0.
Assay in data set [39]: not given
The source holds these as a separate data set.

Data set [40] can be described thus: method code SF-HPLC, from DOI: 10.1016/j.bmcl.2010.02.057, PMID: 20231095. To be noted: pH 7.4.
Data set [41] can be described thus: method code SF-RC, from DOI: 10.1023/a:1015892313856, PMID: 1495896. To be noted: pH 7.2.

Peptide text beside a SMILES is read from it. * marks the point of attachment. NHtBu = CC(C)(C)N*

The logD is lipophilicity at a set pH, counting ionised and neutral species. For orientation: logP means the decadic logarithm of the partition coefficient of the neutral form, usually between octanol and water. High values mean higher lipophilicity, low ones lower lipophilicity.

On to `O=C1CCC[C@@H]2[C@H]3CCC[N@+]4([O-])CCC[C@@H](CN12)[C@@H]34`, for which the logD in data set [1] is -0.86.
On to `CC(C(c1ccccc1)c1ccccc1)[N+](=O)[O-]` (configuration not stated), for which the logP in data set [2] worked out at 3.91.
Consider `CC(C)(c1ccc(O)cc1)c1ccc(O)cc1`, for which the logP in data set [3] was 3.41.
Turning to `CC(C)(C(=O)c1ccccc1I)c1cccnc1`, the logD in [4] amounted to 2.19.
Molecule `CC[C@@H](c1cccc(O)c1)[C@@H](C)CN(C)C` came in with a logP of 2.77.
`CN(C)c1ccc(-c2nc3ccc(I)cc3o2)cc1`: the logD in [5] turned out to be 2.09.
`C[C@H](CS)C(=O)N1C[C@@H](Sc2ccccc2)C[C@H]1C(=O)O` (relative stereo) registered a logD in data set [6] of 2.16.
The molecule `CCCCCCOP1(=O)COC(Cn2ccc(N)nc2=O)CO1` (configuration not stated) came in with a logD in data set [7] of 2.84.
As to `CSc1ccc2oc3ccc(C(=O)O)cc3c(=O)c2c1`, the logD in [8] is 3.4.
`CCc1c(OC)cc(Cc2cnc(N)nc2N)cc1OC`: the pH-dependent lipophilicity (logD) in data set [9] turned out to be 2.72.
In [10], `CC(C(=O)O)c1cccc(Oc2ccccc2)c1` (configuration not stated) showed a logD of 3.45.
The molecule `COc1ccc(COc2ccccc2C(N)=O)cc1` returned a logP in data set [11] of 1.63.
Take `OCCN1CCC(COc2ccc(I)cc2)CC1`: the logP in [12] stood at 4.
Take `COc1ccc2cc(CCC(C)=O)ccc2c1`: the logP in data set [13] is 3.45.
The molecule `CC(C)OC(=O)C(NC(=O)c1cccnc1)n1cc(F)c(=O)[nH]c1=O` (configuration not stated) displayed a logD in [14] of 0.62.
`ClC1(Cl)CC1(c1ccccc1)c1ccccc1` displayed a logP in data set [15] of 4.88.
As to `CC(C)NCC(O)COc1cccc(CC(N)=O)c1` (configuration not stated), the logP in data set [16] stood at 0.22.
As to `Cc1cc2cc[nH]c2c(C(=O)Nc2ncccc2C)n1`, in data set [17], the logP turned out to be 5.3.
For `CN(C)c1ccccc1Sc1ccc(C#N)cc1N`, the logD in data set [18] stood at 2.71.
In turn, `CC(C(N)=O)c1ccc(-c2ccccc2)c(F)c1` (configuration not stated) gave a logD in [19] of 3.2.
With `C=CCOc1ccccc1OCC(O)CNC(C)C` (configuration not stated), the logD in [20] turned out to be 2.25.
Take `Cn1ccc2cc(-c3nc4ccc(F)nc4o3)ccc21`: the logP in [21] came out at 3.42.
In the case of `CN(C)Cc1cc(I)ccc1Sc1ccc(Cl)cc1N`, in [22], the logP was 3.31.
`O=C1NC(=O)C2(CCCCCCCCCCC2)C(=O)N1`: in [23], the logP is 3.51.
In turn, `O=C1CN=C(c2cccc(Br)c2)c2cc(Br)ccc2N1` displayed a logP in data set [24] of 3.88.
In the case of `CCCC(=O)NCCC(=O)NCc1c(O)c(=O)cc(C)n1C`, the logD in data set [25] is -0.7.
Molecule `Cc1ccnc2c1NC(=O)c1cccnc1N2C1CC1` came in with a logD in [26] of 1.81.
For `CCC(C)OC(=O)C(C(=O)OC(C)CC)=C1SC=CS1` (configuration not stated), the logP in data set [27] worked out at 4.89.
Take `CC(C)NCC(O)c1ccc2ccccc2c1` (configuration not stated): in data set [28], the logP was 3.
As for `CN(C)c1ccc2c(c1)Cc1cc(I)ccc1-2`, in data set [29], the logD amounted to 2.47.
With `NC(Cc1ccccc1)C(=O)OCn1ncc2c(=O)[nH]cnc21` (racemic), the logD in [30] worked out at 0.4.
On to `O=CC1=CC=C2C(C(=O)O)CCN2c2cc(Br)ccc21` (configuration not stated), for which the logP in [31] stood at 3.6.
As for `Cc1cn(C2CC(O)C(CO)S2)c(=O)n(Cc2cn(CCF)nn2)c1=O` (configuration not stated), in data set [32], the logP is -0.86.
For `O=C1Nc2c(Cl)ccc(OCCF)c2C2(CCCCC2)N1`, in data set [33], the logD stood at 2.9.
On to `O=C(/C=C/c1ccc(O)cc1)c1ccc(O)cc1O`, for which the logP in [34] was determined as 1.91.
Molecule `CNc1ccc(/C=C/c2ccc(O)cc2)cc1` returned a logD in data set [35] of 2.36.
Regarding `COC(=O)C1(O)c2ccccc2-c2ccc(Cl)cc21` (configuration not stated), the logP in data set [36] was determined as 2.86.
For the molecule `CC(=O)OCC(CCn1cnc2cnc(N)nc21)COC(C)=O`, the logD in data set [37] worked out at 0.32.
In the case of `Cc1cc(-n2[nH]c3c(cnc4ccccc43)c2=O)cs1`, in [38], the logD is 1.58.
On to `COCCOc1ccccc1S(=O)(=O)NC(=O)Nc1nc(OC)nc(OC)n1`, for which the logP in [39] was 1.71.
In [40], `CCCC(=O)OC(C)OC(=O)c1sc2cc(O)c(O)cc2c1Cl` (configuration not stated) had a logD of 2.16.
With `CC(=O)NC(C)C(=O)N1CCCC1C(=O)NC(C)(C)C` (stereo not drawn) (Ac-Ala-Pro-NHtBu; configuration not given here), the logD in data set [41] is -0.39.

The values are drawn from the SangsterLogP compilation.
